Results from ChEMBL document CHEMBL3808305, “Discovery of fused tricyclic core containing HCV NS5A inhibitors with pan-genotype activity” (Bioorg Med Chem Lett, 2016).

What was measured:
Hepatitis C virus [1] = experiment: Antiviral activity against HCV genotype 2a assessed as decrease in HCV replicon RNA replication after 3 days in presence of 10% FBS by taqman assay based cell based replicon method; type: functional, organism-based, Hepacivirus hominis; details: 72 h
Hepatitis C virus [2] = experiment: Antiviral activity against HCV genotype 1b assessed as decrease in HCV replicon RNA replication after 3 days in presence of 10% FBS by taqman assay based cell based replicon method; type: functional, organism-based, Hepacivirus hominis; details: 72 h
Hepatitis C virus [3] = experiment: Antiviral activity against HCV genotype 1a assessed as decrease in HCV replicon RNA replication after 3 days in presence of 10% FBS by taqman assay based cell based replicon method; type: functional, organism-based, Hepacivirus hominis; details: subtype 1a, 72 h
Hepatitis C virus [4] = experiment: Antiviral activity against HCV genotype 1a expressing NS5A Y93H mutant assessed as decrease in HCV replicon RNA replication after 3 days by taqman assay based cell based replicon method; type: functional, organism-based, Hepacivirus hominis; details: subtype 1a, 72 h
Hepatitis C virus [5] = experiment: Antiviral activity against HCV genotype 2a assessed as decrease in HCV replicon RNA replication after 3 days by taqman assay based cell based replicon method; type: functional, organism-based, Hepacivirus hominis; details: 72 h
Hepatitis C virus [6] = experiment: Antiviral activity against HCV genotype 1a assessed as decrease in HCV replicon RNA replication after 3 days by taqman assay based cell based replicon method; type: functional, organism-based, Hepacivirus hominis; details: subtype 1a, 72 h
Hepatitis C virus [7] = experiment: Antiviral activity against HCV genotype 1b assessed as decrease in HCV replicon RNA replication after 3 days by taqman assay based cell based replicon method; type: functional, organism-based, Hepacivirus hominis; details: 72 h
Hepatitis C virus [8] = experiment: Antiviral activity against HCV genotype 3a assessed as decrease in HCV replicon RNA replication after 3 days by taqman assay based cell based replicon method; type: functional, organism-based, Hepacivirus hominis; details: 72 h
[9] = Clearance in Sprague-Dawley rat at 5 mg/kg, po or 2 mg/kg, iv; type: ADME, organism-based; details: in vivo
[10] = AUC in Sprague-Dawley rat at 5 mg/kg, po; type: ADME, organism-based; details: in vivo
[11] = Oral bioavailability in Sprague-Dawley rat at 5 mg/kg; type: ADME, organism-based; details: in vivo
[12] = Half life in Sprague-Dawley rat at 5 mg/kg, po or 2 mg/kg, iv; type: ADME, organism-based; details: in vivo
[13] = AUC in Sprague-Dawley rat at 10 mg/kg, po; type: ADME, organism-based; details: in vivo
[14] = Oral bioavailability in Sprague-Dawley rat at 10 mg/kg; type: ADME, organism-based; details: in vivo
[15] = Clearance in Sprague-Dawley rat at 10 mg/kg, po or 2 mg/kg, iv; type: ADME, organism-based; details: in vivo
[16] = Half life in Sprague-Dawley rat at 10 mg/kg, po or 2 mg/kg, iv; type: ADME, organism-based; details: in vivo
Hepatitis C virus [17] = experiment: Antiviral activity against HCV genotype 3a NC009824 assessed as decrease in HCV replicon RNA replication by taqman assay based cell based replicon method; type: functional, organism-based, Hepacivirus hominis
Hepatitis C virus [18] = experiment: Antiviral activity against HCV genotype 2a JFH assessed as decrease in HCV replicon RNA replication by taqman assay based cell based replicon method; type: functional, organism-based, Hepacivirus hominis; details: subtype 2a JFH
Hepatitis C virus [19] = experiment: Antiviral activity against HCV genotype 1a H77 expressing NS5A Y93H mutant infected in mouse HB1 cells assessed as decrease in HCV replicon RNA replication by taqman assay; type: functional, organism-based, Hepacivirus hominis; details: genotype 1a H77, HB1
Hepatitis C virus [20] = experiment: Antiviral activity against HCV genotype 1a H77 infected in mouse HB1 cells assessed as decrease in HCV replicon RNA replication after 3 days by taqman assay; type: functional, organism-based, Hepacivirus hominis; details: genotype 1a H77, HB1, 72 h
Hepatitis C virus [21] = experiment: Antiviral activity against HCV genotype 1b Con1 assessed as decrease in HCV replicon RNA replication by taqman assay based cell based replicon method; type: functional, organism-based, Hepacivirus hominis; details: isolate Con1

EC50 (Hepatitis C virus [1]) [nM] | EC50 (Hepatitis C virus [2]) [nM] | EC50 (Hepatitis C virus [3]) [nM] | SMILES | EC50 (Hepatitis C virus [4]) [nM] | EC50 (Hepatitis C virus [5]) [nM] | EC50 (Hepatitis C virus [6]) [nM] | EC50 (Hepatitis C virus [7]) [pM] | EC50 (Hepatitis C virus [8]) [nM] | further results
55 | 0.06 | 220 | COC(=O)N[C@H](C(=O)N1CCC[C@H]1c1ncc(-c2ccc3c(c2)C=Nc2ccc(-c4cnc([C@@H]5CCCN5C(=O)[C@@H](NC(=O)OC)C(C)C)[nH]4)cc2O3)[nH]1)C(C)C |  |  |  |  |  | 
 |  |  | CCCC/C=C1/c2ccc(-c3cnc([C@@H]4CCCN4C(=O)[C@@H](NC(=O)OC)C(C)C)[nH]3)cc2Oc2ccc(-c3cnc([C@@H]4CCCN4C(=O)[C@@H](NC(=O)OC)C(C)C)[nH]3)cc21 | 260 | 0.05 | > 0.1 | 6 | 0.4 | 
 |  |  | COC(=O)N[C@H](C(=O)N1CCC[C@H]1c1ncc(-c2ccc3c(c2)Oc2ccc(-c4cnc([C@@H]5CCCN5C(=O)[C@@H](NC(=O)OC)C(C)C)[nH]4)cc2O3)[nH]1)C(C)C | 16 | 0.01 | 0.01 | 9 |  | clearance [9]: 6.4 mL/min/kg; AUC [10]: 4.5 µM·h; bioavailability [11]: 26%; half-life [12]: 84 min
 |  |  | COC(=O)N[C@H](C(=O)N1CCC[C@H]1c1ncc(-c2ccc3c(c2)Oc2ccc(-c4cnc([C@@H]5CCCN5C(=O)[C@@H](NC(=O)OC)C(C)C)[nH]4)cc2N3C)[nH]1)C(C)C | 70 | 0.07 | 0.09 | 7 | 0.3 | AUC [13]: 2.8 µM·h; bioavailability [14]: 69%; clearance [15]: 32 mL/min/kg; half-life [16]: 72 min
 |  |  | COC(=O)N[C@H](C(=O)N1CCC[C@H]1c1ncc(-c2ccc3nc4cc(-c5cnc([C@@H]6CCCN6C(=O)[C@@H](NC(=O)OC)C(C)C)[nH]5)ccc4nc3c2)[nH]1)C(C)C | 61 | 0.1 | 0.06 | 60 | 0.2 | 
3 | 0.008 | 5 | COC(=O)N[C@H](C(=O)N1CCC[C@H]1c1ncc(-c2ccc3c(c2)Oc2ccc(-c4cnc([C@@H]5CCCN5C(=O)[C@@H](NC(=O)OC)C(C)C)[nH]4)cc2N3c2ccccc2)[nH]1)C(C)C |  |  |  |  |  | 
 |  |  | COC(=O)N[C@H](C(=O)N1CCC[C@H]1c1ncc(-c2ccc3c(c2)Oc2ccc(-c4cnc([C@@H]5CCCN5C(=O)[C@@H](NC(=O)OC)C(C)C)[nH]4)cc2S3)[nH]1)C(C)C | 21 | 0.06 | 0.04 | 2 | 0.3 | clearance [9]: 15 mL/min/kg; AUC [10]: 1.1 µM·h; bioavailability [11]: 25%; half-life [12]: 78 min
55 | 0.5 | 40 | COC(=O)N[C@H](C(=O)N1CCC[C@H]1c1ncc(-c2ccc3c(c2)C=Nc2cc(-c4cnc([C@@H]5CCCN5C(=O)[C@@H](NC(=O)OC)C(C)C)[nH]4)ccc2O3)[nH]1)C(C)C |  |  |  |  |  | 
310 | 0.2 | 145 | COC(=O)N[C@H](C(=O)N1CCC[C@H]1c1ncc(-c2ccc3c(c2)NC(=O)c2ccc(-c4cnc([C@@H]5CCCN5C(=O)[C@@H](NC(=O)OC)C(C)C)[nH]4)cc2O3)[nH]1)C(C)C |  |  |  |  |  | 
 |  |  | COC(=O)N[C@H](C(=O)N1CCC[C@H]1c1nc(-c2ccc3c(c2)O[C@@H](c2ccccc2)n2c-3cc3cc(-c4c[nH]c([C@@H]5CCCN5C(=O)[C@@H](NC(=O)OC)C(C)C)n4)ccc32)c[nH]1)C(C)C [ELBASVIR] |  |  |  |  |  | EC50 (Hepatitis C virus [17]): 0.02 nM; EC50 (Hepatitis C virus [18]): 3 pM; EC50 (Hepatitis C virus [19]): 2 nM; EC50 (Hepatitis C virus [20]): 4 pM; EC50 (Hepatitis C virus [21]): 3 pM
 |  |  | COC(=O)N[C@H](C(=O)N1CCC[C@H]1c1ncc(-c2ccc3c(c2)Oc2ccc(-c4cnc([C@@H]5CCCN5C(=O)[C@@H](NC(=O)OC)C(C)C)[nH]4)cc2S3(=O)=O)[nH]1)C(C)C | 2380 | 0.8 | > 1 | 60 | 16 | 
 |  |  | COC(=O)N[C@H](C(=O)N1CCC[C@H]1c1ncc(-c2ccc3c(c2)Oc2ccc(-c4cnc([C@@H]5CCCN5C(=O)[C@@H](NC(=O)OC)C(C)C)[nH]4)cc2C3(C)C)[nH]1)C(C)C | 130 | < 0.02 | 0.02 | 5 | 0.3 | AUC [13]: 2.3 µM·h; bioavailability [14]: 39%; clearance [15]: 19 mL/min/kg; half-life [16]: 96 min
